# According to patent publication US20240239861A1, “GLUCAGON-RECEPTOR SELECTIVE POLYPEPTIDES AND METHODS OF USE THEREOF” (i2O Therapeutics, Inc., priority 2016, published 2024):
# pEC50: −log10 of the molar value. Where a SMILES comes first, the peptide text is derived from it. [ ]: non-standard residue; d: D form. Aib = CC(C)(N)C(=O)O
# Molecular target: human GLP-1R (Homo sapiens, UniProt P43220)
# Test: Peptide-receptor mediated cAMP accumulation (LANCE Ultra cAMP) in CHO-K1 cells transfected with human GLP-1R
# Type: cell-based
# Settings: hGLP1 pEC50 (cAMP mean (n = 3): 11 point curve starting at 1 nM, Table 3)
# Chain of human GLP-1R (P43220 24-463): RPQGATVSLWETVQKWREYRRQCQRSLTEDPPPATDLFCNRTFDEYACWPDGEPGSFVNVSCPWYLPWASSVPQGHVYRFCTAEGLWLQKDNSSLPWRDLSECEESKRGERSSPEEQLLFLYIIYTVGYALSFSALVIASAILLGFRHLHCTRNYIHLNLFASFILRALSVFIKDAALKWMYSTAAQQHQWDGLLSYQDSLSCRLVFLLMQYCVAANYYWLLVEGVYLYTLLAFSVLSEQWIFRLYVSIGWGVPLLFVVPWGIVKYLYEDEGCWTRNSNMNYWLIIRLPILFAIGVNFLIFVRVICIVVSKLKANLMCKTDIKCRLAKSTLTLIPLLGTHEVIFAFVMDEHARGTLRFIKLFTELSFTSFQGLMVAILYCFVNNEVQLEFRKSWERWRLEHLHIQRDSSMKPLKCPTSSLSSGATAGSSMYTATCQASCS
row,Compound,pEC50
1,CC(C)C[C@H](NC(=O)[C@H](Cc1ccc(O)cc1)NC(=O)[C@H](CCCCN)NC(=O)[C@H](CO)NC(=O)[C@H](Cc1ccc(O)cc1)NC(=O)[C@H](CC(=O)O)NC(=O)[C@H](CO)NC(=O)[C@@H](NC(=O)[C@H](Cc1ccccc1)NC(=O)[C@@H](NC(=O)CNC(=O)[C@H](Cc1c[nH]cn1)NC(=O)[C@H](CO)NC(=O)[C@@H](N)Cc1ccc(O)cc1)[C@@H](C)O)[C@@H](C)O)C(=O)N[C@@H](CC(=O)O)C(=O)N[C@@H](C)C(=O)N[C@@H](C)C(=O)N[C@@H](CCCNC(=N)N)C(=O)N[C@@H](C)C(=O)N[C@@H](CCC(N)=O)C(=O)N[C@@H](CCC(=O)O)C(=O)N[C@@H](Cc1ccccc1)C(=O)N[C@H](C(=O)N[C@@H](CCCCN)C(=O)N[C@@H](Cc1c[nH]c2ccccc12)C(=O)N[C@@H](CC(C)C)C(=O)N[C@@H](CCC(=O)O)C(=O)N[C@@H](CC(=O)O)C(=O)N[C@@H](CCC(=O)O)C(=O)N1CCC[C@H]1C(=O)N[C@@H](CCCCN)C(=O)N[C@@H](CO)C(=O)N[C@@H](CCCCN)C(=O)N[C@@H](CO)C(=O)N1CCC[C@H]1C(=O)N1CCC[C@H]1C(=O)N1CCC[C@H]1C(=O)N[C@@H](CO)C(N)=O)C(C)C [Compound A80] (H-YSHGTFTSDYSKYLDAARAQEFVKWLEDEPKSKSPPPS-NH2; N-terminus assumed),< 9.00
2,CC(C)C[C@H](NC(=O)[C@H](Cc1ccc(O)cc1)NC(=O)[C@H](CCCCN)NC(=O)[C@H](CO)NC(=O)[C@H](Cc1ccc(O)cc1)NC(=O)[C@H](CC(=O)O)NC(=O)[C@H](CO)NC(=O)[C@@H](NC(=O)[C@H](Cc1ccccc1)NC(=O)[C@@H](NC(=O)CNC(=O)[C@H](Cc1c[nH]cn1)NC(=O)[C@H](CO)NC(=O)[C@@H](N)Cc1ccc(O)cc1)[C@@H](C)O)[C@@H](C)O)C(=O)N[C@@H](CC(=O)O)C(=O)NC(C)(C)C(=O)N[C@@H](CCCCN)C(=O)N[C@@H](CCCNC(=N)N)C(=O)N[C@@H](C)C(=O)N[C@@H](CCC(N)=O)C(=O)N[C@@H](CCC(=O)O)C(=O)N[C@@H](Cc1ccccc1)C(=O)N[C@H](C(=O)NC(C)(C)C(=O)N[C@@H](Cc1c[nH]c2ccccc12)C(=O)N[C@@H](CC(C)C)C(=O)N[C@@H](CCC(=O)O)C(=O)N[C@@H](CC(=O)O)C(=O)N[C@@H](CCC(=O)O)C(=O)N1CCC[C@H]1C(=O)N[C@@H](CO)C(=O)N[C@@H](CO)C(=O)NCC(=O)N[C@@H](CCCCN)C(=O)N1CCC[C@H]1C(=O)N1CCC[C@H]1C(=O)N1CCC[C@H]1C(=O)N[C@@H](CO)C(N)=O)C(C)C [Compound A85] (H-YSHGTFTSDYSKYLD[Aib]KRAQEFV[Aib]WLEDEPSSGKPPPS-NH2; N-terminus assumed),< 9.00
3,CC(C)C[C@H](NC(=O)[C@H](Cc1ccc(O)cc1)NC(=O)[C@H](CCCCN)NC(=O)[C@H](CO)NC(=O)[C@H](Cc1ccc(O)cc1)NC(=O)[C@H](CC(=O)O)NC(=O)[C@H](CO)NC(=O)[C@@H](NC(=O)[C@H](Cc1ccccc1)NC(=O)[C@@H](NC(=O)CNC(=O)[C@H](Cc1c[nH]cn1)NC(=O)[C@H](CO)NC(=O)[C@@H](N)Cc1ccc(O)cc1)[C@@H](C)O)[C@@H](C)O)C(=O)N[C@@H](CC(=O)O)C(=O)NC(C)(C)C(=O)N[C@@H](CCCCN)C(=O)N[C@@H](CCCNC(=N)N)C(=O)N[C@@H](C)C(=O)N[C@@H](CCC(N)=O)C(=O)N[C@@H](CCC(=O)O)C(=O)N[C@@H](Cc1ccccc1)C(=O)N[C@H](C(=O)NC(C)(C)C(=O)N[C@@H](Cc1c[nH]c2ccccc12)C(=O)N[C@@H](CC(C)C)C(=O)N[C@@H](CCC(=O)O)C(=O)N[C@@H](CC(=O)O)C(=O)N[C@@H](CCC(=O)O)C(=O)N[C@@H](CCCCN)C(=O)N[C@@H](CO)C(=O)N[C@@H](CO)C(=O)NCC(=O)N[C@@H](CCCCN)C(=O)N1CCC[C@H]1C(=O)N1CCC[C@H]1C(=O)N1CCC[C@H]1C(=O)N[C@@H](CO)C(=O)O)C(C)C [Compound A87] (H-YSHGTFTSDYSKYLD[Aib]KRAQEFV[Aib]WLEDEKSSGKPPPS-OH; N-terminus assumed),< 9.00
4,CC(C)C[C@H](NC(=O)[C@H](Cc1ccc(O)cc1)NC(=O)[C@H](CCCCN)NC(=O)[C@H](CO)NC(=O)[C@H](Cc1ccc(O)cc1)NC(=O)[C@H](CC(=O)O)NC(=O)[C@H](CO)NC(=O)[C@@H](NC(=O)[C@H](Cc1ccccc1)NC(=O)[C@@H](NC(=O)CNC(=O)[C@H](Cc1c[nH]cn1)NC(=O)[C@H](CO)NC(=O)[C@@H](N)Cc1ccc(O)cc1)[C@@H](C)O)[C@@H](C)O)C(=O)N[C@@H](CC(=O)O)C(=O)NC(C)(C)C(=O)N[C@@H](CCCCN)C(=O)N[C@@H](CCCNC(=N)N)C(=O)N[C@@H](C)C(=O)N[C@@H](CCC(N)=O)C(=O)N[C@@H](CCC(=O)O)C(=O)N[C@@H](Cc1ccccc1)C(=O)N[C@H](C(=O)NC(C)(C)C(=O)N[C@@H](Cc1c[nH]c2ccccc12)C(=O)N[C@@H](CC(C)C)C(=O)N[C@@H](CCC(=O)O)C(=O)N[C@@H](CC(=O)O)C(=O)N[C@@H](CCC(=O)O)C(=O)N1CCC[C@H]1C(=O)N[C@@H](CO)C(=O)N[C@@H](CO)C(=O)NCC(=O)N[C@@H](CCCCN)C(=O)N[C@@H](CCCCN)C(=O)N1CCC[C@H]1C(=O)N1CCC[C@H]1C(=O)N[C@@H](CO)C(=O)O)C(C)C [Compound A88] (H-YSHGTFTSDYSKYLD[Aib]KRAQEFV[Aib]WLEDEPSSGKKPPS-OH),< 9.00
5,CC(C)C[C@H](NC(=O)[C@H](Cc1ccc(O)cc1)NC(=O)[C@H](CCCCN)NC(=O)[C@H](CO)NC(=O)[C@H](Cc1ccc(O)cc1)NC(=O)[C@H](CC(=O)O)NC(=O)[C@H](CO)NC(=O)[C@@H](NC(=O)[C@H](Cc1ccccc1)NC(=O)[C@@H](NC(=O)CNC(=O)[C@H](Cc1c[nH]cn1)NC(=O)[C@H](CO)NC(=O)[C@@H](N)Cc1ccc(O)cc1)[C@@H](C)O)[C@@H](C)O)C(=O)N[C@@H](CC(=O)O)C(=O)NC(C)(C)C(=O)N[C@@H](CCCCN)C(=O)N[C@@H](CCCNC(=N)N)C(=O)N[C@@H](C)C(=O)N[C@@H](CCC(N)=O)C(=O)N[C@@H](CCC(=O)O)C(=O)N[C@@H](Cc1ccccc1)C(=O)N[C@H](C(=O)NC(C)(C)C(=O)N[C@@H](Cc1c[nH]cn1)C(=O)N[C@@H](CC(C)C)C(=O)N[C@@H](CCC(=O)O)C(=O)N[C@@H](CC(=O)O)C(=O)N[C@@H](CCC(=O)O)C(=O)N1CCC[C@H]1C(=O)N[C@@H](CO)C(=O)N[C@@H](CO)C(=O)NCC(=O)N[C@@H](CCCCN)C(=O)N1CCC[C@H]1C(=O)N1CCC[C@H]1C(=O)N1CCC[C@H]1C(=O)N[C@@H](CO)C(=O)O)C(C)C [Compound A89] (H-YSHGTFTSDYSKYLD[Aib]KRAQEFV[Aib]HLEDEPSSGKPPPS-OH; N-terminus assumed),< 9.00
